Assay results from patent US8148378B2, “Pyridazine derivatives and their use as inhibitors of stearoyl-CoA desaturase-1 activity in a mammal” (Xenon Pharmaceuticals Inc., priority 2003, dated 2012).
Like-named read-outs stand apart in the source and are kept apart here.

How the values were obtained:
SCD = target: T1, SCD (Homo sapiens, UniProt O00767); assay: Cell IC50 of SCD inhibitors (Table 1, no method given); type: cell-based; conditions: cell assay, cell type not stated
T1 sequence (O00767 1-359): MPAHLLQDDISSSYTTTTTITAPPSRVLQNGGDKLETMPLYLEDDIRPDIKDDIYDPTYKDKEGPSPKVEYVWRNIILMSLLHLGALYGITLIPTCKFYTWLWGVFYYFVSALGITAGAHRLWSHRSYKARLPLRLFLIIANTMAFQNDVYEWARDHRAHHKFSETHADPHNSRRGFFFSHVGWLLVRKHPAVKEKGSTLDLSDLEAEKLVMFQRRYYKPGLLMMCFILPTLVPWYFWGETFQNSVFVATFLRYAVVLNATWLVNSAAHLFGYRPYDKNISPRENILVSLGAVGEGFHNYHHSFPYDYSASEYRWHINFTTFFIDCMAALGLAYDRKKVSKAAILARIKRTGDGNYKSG

[1] = target: T2, Stearoyl-CoA Desaturase (SCD) (Mus musculus, UniProt P13516); assay: Stearoyl-CoA desaturase inhibition using mouse liver microsomes; type: biochemical; conditions: for Residual Activity (% remaining, 1 μM): % SCD enzyme activity remaining at 1 μM test compound; for Residual Activity (% remaining, 10 μM): % SCD enzyme activity remaining at 10 μM test compound
T2 construct: from tissue; host or cells: liver microsomes of male ICR mice on a high-carbohydrate, low fat diet
T2 sequence (P13516 1-355): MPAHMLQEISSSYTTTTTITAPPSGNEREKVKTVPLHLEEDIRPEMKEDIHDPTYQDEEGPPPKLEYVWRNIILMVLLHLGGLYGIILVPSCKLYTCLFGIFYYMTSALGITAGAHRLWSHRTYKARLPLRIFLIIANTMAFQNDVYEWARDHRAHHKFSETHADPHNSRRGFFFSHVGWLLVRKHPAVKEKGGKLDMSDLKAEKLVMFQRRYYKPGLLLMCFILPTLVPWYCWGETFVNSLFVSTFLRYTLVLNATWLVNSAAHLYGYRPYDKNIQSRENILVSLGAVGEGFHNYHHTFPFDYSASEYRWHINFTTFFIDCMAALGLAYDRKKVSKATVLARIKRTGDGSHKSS
Experimental: Preparation of Mouse Liver Microsomes:
The absence of mitochondrial contamination is enzymatically assessed.
Incubation of Mouse Liver Microsomes with Test Compounds: […]

[2] = microsomal assay, read-out: Microsome IC50
[3] = projected from residual activity at 1 and 10 μM, read-out: Projected IC50

| SMILES | IC50 (SCD) | IC50 [1, 2] | Residual Activity (% remaining, 1 μM) [1] | Residual Activity (% remaining, 10 μM) [1] | IC50 [1, 3] |
| --- | --- | --- | --- | --- | --- |
| CC(C)CCSc1ccc(N2CCN(C(=O)c3ccccc3C(F)(F)F)CC2)nn1 [Example 6.1, {4-[6-(3-METHYLBUTYLSULFANYL)PYRIDAZIN-3-YL]PIPERAZIN-1-YL}-(2-TRIFLUOROMETHYL-PHENYL)METHANONE] | 849 nM | 447 nM |  |  |  |
| O=C(c1ccccc1C(F)(F)F)N1CCN(c2ccc(NCCc3ccccc3)nn2)CC1 [Example 1.1, [4-(6-PHENETHYLAMINOPYRIDAZIN-3-YL)PIPERAZIN-1-YL]-(2-TRIFLUOROMETHYLPHENYL)METHANONE] |  |  | 91.144 % remaining | 55.946 % remaining | 10000 to 50000 nM |
| CN(CCc1ccccc1)c1ccc(N2CCN(C(=O)c3ccccc3C(F)(F)F)CC2)nn1 [Example 1, {4-[6-(METHYLPHENETHYLAMINO)PYRIDAZIN-3-YL]PIPERAZIN-1-YL}-(2-TRIFLUOROMETHYLPHENYL)METHANONE] |  |  | 86.210 % remaining | 57.955 % remaining | 10000 to 50000 nM |
| O=C(c1ccccc1C(F)(F)F)N1CCN(c2ccc([S+]([O-])CCc3ccccc3)nn2)CC1 (stereo not drawn) [Example 4] | 175 nM | 67 nM |  |  |  |
| O=C(c1ccccc1C(F)(F)F)N1CCN(c2ccc(SCCc3ccccc3)nn2)CC1 [Example 6, [4-(6-PHENETHYLSULFANYLPYRIDAZIN-3-YL)PIPERAZIN-1-YL](2-TRIFLUOROMETHYLPHENYL)METHANONE] | 33 nM | 60 nM |  |  |  |
| O=C(c1ccccc1C(F)(F)F)N1CCN(c2ccc(S(=O)(=O)CCc3ccccc3)nn2)CC1 [Example 3, {4-[6-(2-PHENYLETHANESULFONYL)PYRIDAZIN-3-YL]PIPERAZIN-1-YL}-(2-TRIFLUOROMETHYL-PHENYL)METHANONE] | 111 nM | 67 nM |  |  |  |
| O=C(c1ccccc1C(F)(F)F)N1CCN(c2ccc(OCCC3CC3)nn2)CC1 [Example 5.1, {4-[6-(2-CYCLOPROPYLETHOXY)PYRIDAZIN-3-YL]PIPERAZIN-1-YL}-(2-TRIFLUOROMETHYLPHENYL)METHANONE] |  |  | 53.875 % remaining | 29.330 % remaining | 1000 to 10000 nM |
| O=C(c1ccccc1C(F)(F)F)N1CCN(c2ccc(OCCc3ccccc3)nn2)CC1 [Example 5, [4-(6-PHENETHYLOXYPYRIDAZIN-3-YL)PIPERAZIN-1-YL]-(2-TRIFLUOROMETHYL-PHENYL)METHANONE] | 4300 nM | 4550 nM |  |  |  |
| CCCS(=O)(=O)Nc1ccc(N2CCN(C(=O)c3ccccc3C(F)(F)F)CC2)nn1 [Example 2, PROPANE-1-SULFONIC ACID {6-[4-(2-TRIFLUOROMETHYLBENZOYL)PIPERAZIN-1-YL]PYRIDAZIN-3-YL}AMIDE] | 10500 nM | 6250 nM |  |  |  |
